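Assay format: 96-well plates, 48-hour exposure. Abbreviation: GI50, concentration required for 50% inhibition of growth. The concentration for full growth arrest is given as TGI.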
Columns and labels:
Assay in all cases: DTP human tumour cell line panel, 48 h
KM20L2 colon = tested on: KM20L2 colon
RXF-631 renal = tested on: RXF-631 renal
DLD-1 colon = tested on: DLD-1 colon
HOP-18 NSCLC = tested on: HOP-18 NSCLC

Work on `N=C1C(=N)c2ccccc2-c2ccccc21.[Cl-].[Ru+2].c1ccc(-c2ccccn2)nc1.c1ccc(-c2ccccn2)nc1` yielded a GI50 (KM20L2 colon) greater than 100 µM and a TGI (KM20L2 colon) greater than 100 µM.

Work on `Cc1ccc(C)c(NC(=O)C(=O)C(C(=O)c2ccc3ccccc3c2)C2OC(=O)c3ccccc32)c1` (centres undefined) yielded a TGI (RXF-631 renal) of 65.6 µM, a TGI (KM20L2 colon) of 53.3 µM and a TGI (DLD-1 colon) of 64.3 µM.

Compound `COC(=O)Cc1cc(O)c2c(c1O)C(=O)c1ccccc1C2=O` has a TGI (RXF-631 renal) greater than 100 µM, a TGI (KM20L2 colon) greater than 100 µM and a TGI (HOP-18 NSCLC) greater than 100 µM. For the same compound, the TGI (DLD-1 colon) was greater than 100 µM.

In the case of `c1ccc(-c2csc3c4ccccc4c4ccccc4[n+]23)cc1`, the TGI (KM20L2 colon) is reported as 20.6 µM, the TGI (HOP-18 NSCLC) is reported as 49.6 µM and the TGI (DLD-1 colon) is reported as 25.4 µM.

With `CNC(C)(C)Cc1ccc(Cl)cc1` the TGI (KM20L2 colon) was greater than 100 µM and the TGI (DLD-1 colon) was greater than 100 µM.

Source: PubChem BioAssay (NCI)
